Assay results reported in patent US10770169B2, “Method of providing a treatment to a subject based on a dynamic pathway map” (THE REGENTS OF THE UNIVERSITY OF CALIFORNIA, priority 2010, dated 2020).
Read-outs that look alike come from different tables or passages of the source.

Assays:
[1] = test system: TCR-activated CD4(+) T cells; conditions: cited from earlier work
breast cancer cell lines = assay: Association of growth rate and response (2-way ANCOVA); format: cell-based, human
Text: To assess the effects of cell line class and growth rate on drug sensitivity, we performed a set of 2-way Analysis of Covariance (ANCOVA) tests, one for each of the three cell line classification schemes described above. […] We performed these analyses in R with the functions lm and ANOVA, which is available as part of the car package.

[2] = test system: panel of 55 breast cancer cell lines; assay: Cell growth inhibition assay (Cell Titer Glo, 72 h, 9 doses; GI50, TGI, LC50); format: cell-based, human; conditions: Homo sapiens, read-out: GI50 (converted)
[3] = test system: luminal, basal, claudin-low and ERBB2AMP breast cancer cell lines; assay: Associations of clinically relevant subtypes and response (non-parametric ANOVA or t-test on GI50 ranks); format: cell-based, human
In short: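 Significance was set at FDR p<0.20 after combining p-values across three test sets. Subtype–response associations came from rank-based non-parametric ANOVA or t-tests on GI50. For three-class comparisons, post-hoc tests of each group against the rest identified the most sensitive group, with FDR correction.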

**Q.** Which interferon-gamma production [1] does the source give for `Cc1ccc(NC(=O)c2ccc(CN3CCN(C)CC3)cc2)cc1Nc1nccc(-c2cccnc2)n1` [imatinib] here?
**A.** inhibit interferon-gamma production

**Q.** Which “significance of subtype and doubling time in ANCOVA model” value (breast cancer cell lines; listed as 5-florouracil) does the source give for `O=c1[nH]cc(F)c(=O)[nH]1` [5-FU, 5-florouracil] here?
**A.** not significant in the subtype test alone but showed strong significance in the ANCOVA model for both class and doubling time

**Q.** What about the “significance of subtype and doubling time in ANCOVA model” value (breast cancer cell lines; listed as 5′FU) of the same compound?
**A.** strong effects of both subtype and growth rate on response

**Q.** And the “response as a function of doubling time” value (breast cancer cell lines; luminal and basal cell lines)?
**A.** decreased as doubling time increased in both luminal and basal cell lines

**Q.** Which results are given for `CN(C)C/C=C/C(=O)Nc1cc2c(Nc3ccc(F)c(Cl)c3)ncnc2cc1O[C@H]1CCOC1` [BIBW 2992]?
**A.** GI50 ([2]; BT-20, BT20 cell line, censored GI50 values): 2750 nM; GI50 ([2]; BT-20, cell line BT20): 2750 nM; GI50 ([2]; BT-474, BT474 cell line, censored GI50 values): 5.89 nM; GI50 ([2]; BT-474, cell line BT474): 5.89 nM; GI50 ([2]; BT-483, BT483 cell line, censored GI50 values): 1660 nM; GI50 ([2]; BT-483, cell line BT483): 1660 nM; GI50 ([2]; CAMA-1, CAMA1 cell line, censored GI50 values): 2240 nM; GI50 ([2]; CAMA-1, cell line CAMA1): 2240 nM; GI50 ([2]; HCC38, HCC38 cell line, censored GI50 values): 1820 nM; GI50 ([2]; HCC38, cell line HCC38): 1820 nM; GI50 ([2]; HCC70, HCC70 cell line, censored GI50 values): 468 nM; GI50 ([2]; HCC70, cell line HCC70): 468 nM; GI50 ([2]; HCC1143, HCC1143 cell line, censored GI50 values): 1380 nM; GI50 ([2]; HCC1143, cell line HCC1143): 1380 nM; GI50 ([2]; HCC1419, HCC1419 cell line, censored GI50 values): 2.95 nM; GI50 ([2]; HCC1419, cell line HCC1419): 2.95 nM; GI50 ([2]; HCC1428, HCC1428 cell line, censored GI50 values): 1740 nM; GI50 ([2]; HCC1428, cell line HCC1428): 1740 nM; GI50 ([2]; HCC1500, HCC1500 cell line, censored GI50 values): 339 nM; GI50 ([2]; HCC1500, cell line HCC1500): 339 nM; GI50 ([2]; HCC1806, HCC1806 cell line, censored GI50 values): 537 nM; GI50 ([2]; HCC1806, cell line HCC1806): 537 nM; GI50 ([2]; HCC1937, HCC1937 cell line, censored GI50 values): 2090 nM; GI50 ([2]; HCC1937, cell line HCC1937): 2090 nM; GI50 ([2]; HCC1954, HCC1954 cell line, censored GI50 values): 123 nM; GI50 ([2]; HCC1954, cell line HCC1954): 123 nM; GI50 ([2]; HCC2185 cell line, censored GI50 values): 1380 nM; GI50 ([2]; MDA-MB-134-VI, MDAMB134VI cell line, censored GI50 values): 3630 nM; GI50 ([2]; MDA-MB-175-VII, MDAMB175VII cell line, censored GI50 values): 4.47 nM; GI50 ([2]; MDA-MB-436, MDAMB436 cell line, censored GI50 values): 3720 nM; GI50 ([2]; MDA-MB-436, cell line MDAMB436): 3720 nM; GI50 ([2]; MDA-MB-453, MDAMB453 cell line, censored GI50 values): 91.2 nM; GI50 ([2]; MDA-MB-453, cell line MDAMB453): 91.2 nM; GI50 ([2]; MDA-MB-468, MDAMB468 cell line, censored GI50 values): 631 nM; GI50 ([2]; MDA-MB-468, cell line MDAMB468): 631 nM; GI50 ([2]; SK-BR-3, SKBR3 cell line, censored GI50 values): 13.2 nM; GI50 ([2]; SK-BR-3, cell line SKBR3): 13.2 nM; GI50 ([2]; SUM52PE, SUM52PE cell line, censored GI50 values): 3390 nM; GI50 ([2]; SUM52PE, cell line SUM52PE): 3390 nM; GI50 ([2]; SUM149PT, SUM149PT cell line, censored GI50 values): 74.1 nM; GI50 ([2]; SUM149PT, cell line SUM149PT): 74.1 nM; GI50 ([2]; SUM185PE, SUM185PE cell line, censored GI50 values): 5620 nM; GI50 ([2]; SUM185PE, cell line SUM185PE): 5620 nM; GI50 ([2]; SUM225CWN, SUM225CWN cell line, censored GI50 values): 9.33 nM; GI50 ([2]; SUM225CWN, cell line SUM225CWN): 9.33 nM; GI50 ([2]; SUM1315MO2, SUM1315MO2 cell line, censored GI50 values): 162 nM; GI50 ([2]; SUM-159-PT, SUM159PT cell line, censored GI50 values): 2570 nM; GI50 ([2]; SUM-159-PT, cell line SUM159PT): 2570 nM; GI50 ([2]; UACC-812, UACC812 cell line, censored GI50 values): 2.82 nM; GI50 ([2]; UACC-812, cell line UACC812): 2.82 nM; GI50 ([2]; ZR-75-1, ZR751 cell line, censored GI50 values): 2340 nM; GI50 ([2]; ZR-75-1, cell line ZR751): 2340 nM; GI50 ([2]; ZR-75B, ZR75B cell line, censored GI50 values): 3020 nM; GI50 ([2]; ZR-75B, cell line ZR75B): 3020 nM; GI50 ([2]; cell line HCC2185): 1380 nM; GI50 ([2]; cell line MDAMB134V): 3630 nM; GI50 ([2]; cell line MDAMB175V): 4.47 nM; GI50 ([2]; cell line SUM1315MO): 162 nM; association of response with ERBB2 amplification [3]: positively associated with ERBB2 amplification; Subtype specificity ([3]; Table 6, most sensitive subtype, FDR p<0.20): ERBB2AMP
